# Results reported in patent US20260166162A1, “CARBON CHAIN SUBSTANCE FOR REGULATING TRANSMEMBRANE TRANSPORT AND FLUIDITY OF CELL MEMBRANES, AND PREPARATION AND USE THEREOF” (priority 2022, published 2026).
# System: Epithelial cells
# Assay: Interaction of GFP-labelled complexes with cell membrane of epithelial cells (Example II-52, Table II-30)
# Type: cell-based
# Settings: GFP-labelled complex, epithelial cells pretreated 4 hours, n=3
# Procedure: The fatty acids were combined with water-soluble small molecules to form a complex, which were labeled with GFP fluorescence to detect cell membrane fluorescence. […] After the cells were stably adhered, the water-soluble fatty acid complexes in the following table were added to the cell culture medium. […] The medium with the drug was pipetted and replaced with normal DMEM medium. […] The green fluorescence intensity was analyzed by imageJ (see Table II-30, n=3).
smiles,measurement,setting,value
CCC/C=C/C(=O)OCC(N)C(=O)O (stereo not drawn) [Ser-t-2-hexenoic acid],Mean fluorescence intensity,0 Hours after medium replaced,104.3 ± 5.2
same,Mean fluorescence intensity,2 Hours after medium replaced,101.3 ± 8.6
same,Mean fluorescence intensity,4 Hours after medium replaced,95.4 ± 4.5
same,Mean fluorescence intensity,8 Hours after medium replaced,39.9 ± 8.4
same,Mean fluorescence intensity,12 Hours after medium replaced,32.5 ± 3.6
same,Mean fluorescence intensity,24 Hours after medium replaced,29.8 ± 5.2
CCCCCCCCC=CCCCCCCCCCCCC(=O)OC(C)C(N)C(=O)O (stereo not drawn) [Thr-erucic acid],Mean fluorescence intensity,0 Hours after medium replaced,137.4 ± 5.8
same,Mean fluorescence intensity,2 Hours after medium replaced,121.3 ± 5.5
same,Mean fluorescence intensity,4 Hours after medium replaced,105.2 ± 7.3
same,Mean fluorescence intensity,8 Hours after medium replaced,79.5 ± 4.8
same,Mean fluorescence intensity,12 Hours after medium replaced,48.3 ± 1.2
same,Mean fluorescence intensity,24 Hours after medium replaced,42.4 ± 4.6
CCCCCC=CCC=CCCCCCCCC(=O)OC(C)C(N)C(=O)O (stereo not drawn) [Thr-linoleic acid],Mean fluorescence intensity,0 Hours after medium replaced,127.9 ± 6.6
same,Mean fluorescence intensity,2 Hours after medium replaced,122.3 ± 4.7
same,Mean fluorescence intensity,4 Hours after medium replaced,102.0 ± 1.5
same,Mean fluorescence intensity,8 Hours after medium replaced,65.2 ± 5.6
same,Mean fluorescence intensity,12 Hours after medium replaced,45.0 ± 2.5
same,Mean fluorescence intensity,24 Hours after medium replaced,41.5 ± 7.2
CCCC(=O)OC(C)C(N)C(=O)O (stereo not drawn) [Thr-n-butyric acid],Mean fluorescence intensity,0 Hours after medium replaced,126.4 ± 4.6
same,Mean fluorescence intensity,2 Hours after medium replaced,121.4 ± 4.6
same,Mean fluorescence intensity,4 Hours after medium replaced,115.0 ± 0.4
same,Mean fluorescence intensity,8 Hours after medium replaced,60.41 ± 3.4
same,Mean fluorescence intensity,12 Hours after medium replaced,34.91 ± 5.6
same,Mean fluorescence intensity,24 Hours after medium replaced,30.67 ± 4.5
CC(OC(=O)CCCCCCC(=O)O)C(N)C(=O)O (stereo not drawn) [Thr-octanedioic acid],Mean fluorescence intensity,0 Hours after medium replaced,125.3 ± 4.2
same,Mean fluorescence intensity,2 Hours after medium replaced,122.4 ± 7.5
same,Mean fluorescence intensity,4 Hours after medium replaced,115.4 ± 6.8
same,Mean fluorescence intensity,8 Hours after medium replaced,55.4 ± 7.8
same,Mean fluorescence intensity,12 Hours after medium replaced,45.0 ± 6.3
same,Mean fluorescence intensity,24 Hours after medium replaced,35.3 ± 5.9
CCCCCCCCCCCCCCCC(=O)OC(C)C(N)C(=O)O (stereo not drawn) [Thr-palmitic acid],Mean fluorescence intensity,0 Hours after medium replaced,123.3 ± 6.6
same,Mean fluorescence intensity,2 Hours after medium replaced,124.4 ± 7.5
same,Mean fluorescence intensity,4 Hours after medium replaced,119.5 ± 4.1
same,Mean fluorescence intensity,8 Hours after medium replaced,69.2 ± 7.5
same,Mean fluorescence intensity,12 Hours after medium replaced,45.3 ± 5.8
same,Mean fluorescence intensity,24 Hours after medium replaced,42.5 ± 5.7
CCCCCCCCCCCCC(=O)OC(C)C(N)C(=O)O (stereo not drawn) [Thr-tridecaneoic acid],Mean fluorescence intensity,0 Hours after medium replaced,106.5 ± 6.4
same,Mean fluorescence intensity,2 Hours after medium replaced,104.3 ± 7.8
same,Mean fluorescence intensity,4 Hours after medium replaced,96.6 ± 2.6
same,Mean fluorescence intensity,8 Hours after medium replaced,53.5 ± 2.6
same,Mean fluorescence intensity,12 Hours after medium replaced,42.5 ± 4.2
same,Mean fluorescence intensity,24 Hours after medium replaced,39.0 ± 4.3
CCCCCCCCCCC(=O)OC(C)C(N)C(=O)O (stereo not drawn) [Thr-undecanoic acid],Mean fluorescence intensity,0 Hours after medium replaced,129.5 ± 7.6
same,Mean fluorescence intensity,2 Hours after medium replaced,123.5 ± 3.5
same,Mean fluorescence intensity,4 Hours after medium replaced,118.7 ± 5.7
same,Mean fluorescence intensity,8 Hours after medium replaced,43.6 ± 9.3
same,Mean fluorescence intensity,12 Hours after medium replaced,35.3 ± 4.0
same,Mean fluorescence intensity,24 Hours after medium replaced,24.6 ± 3.8
CC/C=C\C/C=C\C/C=C\C/C=C\C/C=C\C/C=C\CCC(=O)OCC(O)C1OC(=O)C(O)=C1O (stereo not drawn) [Vc-DHA],Mean fluorescence intensity,0 Hours after medium replaced,126.3 ± 7.4
same,Mean fluorescence intensity,2 Hours after medium replaced,115.4 ± 5.2
same,Mean fluorescence intensity,4 Hours after medium replaced,109.8 ± 4.9
same,Mean fluorescence intensity,8 Hours after medium replaced,52.0 ± 6.1
same,Mean fluorescence intensity,12 Hours after medium replaced,42.0 ± 3.4
same,Mean fluorescence intensity,24 Hours after medium replaced,37.9 ± 4.6
CCCCCCCCC(=O)OCC(O)C1OC(=O)C(O)=C1O (stereo not drawn) [Vc-nonanoic acid],Mean fluorescence intensity,0 Hours after medium replaced,129.5 ± 6.7
same,Mean fluorescence intensity,2 Hours after medium replaced,115.6 ± 6.8
same,Mean fluorescence intensity,4 Hours after medium replaced,93.7 ± 4.2
same,Mean fluorescence intensity,8 Hours after medium replaced,46.3 ± 5.7
same,Mean fluorescence intensity,12 Hours after medium replaced,36.4 ± 5.6
same,Mean fluorescence intensity,24 Hours after medium replaced,33.0 ± 7.0
CCCCCCCCCCCCCC(=O)OCC(O)C1OC(=O)C(O)=C1O (stereo not drawn) [Vc-tetradecanoic acid],Mean fluorescence intensity,0 Hours after medium replaced,115.4 ± 4.6
same,Mean fluorescence intensity,2 Hours after medium replaced,100.2 ± 3.7
same,Mean fluorescence intensity,4 Hours after medium replaced,87.2 ± 4.6
same,Mean fluorescence intensity,8 Hours after medium replaced,41.2 ± 9.4
same,Mean fluorescence intensity,12 Hours after medium replaced,33.6 ± 5.2
same,Mean fluorescence intensity,24 Hours after medium replaced,27.5 ± 7.3
O=C(O)CCCCCCCCCC(=O)OCC(O)C1OC(=O)C(O)=C1O (stereo not drawn) [Vc-undecanedioic acid],Mean fluorescence intensity,0 Hours after medium replaced,124.4 ± 4.5
same,Mean fluorescence intensity,2 Hours after medium replaced,116.4 ± 0.7
same,Mean fluorescence intensity,4 Hours after medium replaced,112.1 ± 6.3
same,Mean fluorescence intensity,8 Hours after medium replaced,65.3 ± 3.6
same,Mean fluorescence intensity,12 Hours after medium replaced,41.3 ± 9.3
same,Mean fluorescence intensity,24 Hours after medium replaced,35.4 ± 1.6
